Data published in paper PMC11676982, “Heterotropic Activation of Cytochrome P450 3A4 by Perillyl Alcohol” (Pharmaceutics, 2024).

Tests used:
[1] = biological target: T1, CYP2A6 (Homo sapiens, UniProt P11509); assay: Direct CYP inhibition assay in pooled HLMs, CYP2A6 (coumarin); assay type: in vitro ADME; settings: pooled HLMs 0.2 mg/mL; substrate coumarin 5 μM; 10 min; 95% CI in parentheses; read-out: IC50 against CYP2A6
T1 sequence (P11509 1-494): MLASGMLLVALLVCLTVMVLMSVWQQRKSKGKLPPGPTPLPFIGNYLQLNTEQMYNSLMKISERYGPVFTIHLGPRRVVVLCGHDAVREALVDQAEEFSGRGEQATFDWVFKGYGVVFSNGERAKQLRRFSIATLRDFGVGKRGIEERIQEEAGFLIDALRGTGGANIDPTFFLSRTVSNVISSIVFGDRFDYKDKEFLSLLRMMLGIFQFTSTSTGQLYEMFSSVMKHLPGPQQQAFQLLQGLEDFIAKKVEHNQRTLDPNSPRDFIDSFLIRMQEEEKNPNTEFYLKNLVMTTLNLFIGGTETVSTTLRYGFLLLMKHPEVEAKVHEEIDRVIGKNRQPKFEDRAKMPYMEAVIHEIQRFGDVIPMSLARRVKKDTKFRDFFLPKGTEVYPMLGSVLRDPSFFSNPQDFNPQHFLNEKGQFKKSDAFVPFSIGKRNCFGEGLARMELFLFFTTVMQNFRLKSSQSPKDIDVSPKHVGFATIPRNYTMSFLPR

[2] = biological target: CYP2E1 (Homo sapiens, UniProt P05181); assay: Direct CYP inhibition assay in pooled HLMs, CYP2E1 (chlorzoxazone); assay type: in vitro ADME; settings: pooled HLMs 0.2 mg/mL; substrate chlorzoxazone 50 μM; 10 min; read-out: IC50 against CYP2E1
[3] = biological target: T2, CYP2B6 (Homo sapiens, UniProt P20813); assay: Metabolism-dependent inhibition assay (IC50 shift) in pooled HLMs, CYP2B6; settings: substrate bupropion; for IC50: CYP2B6, pooled HLMs, 95% CI in parentheses
T2 sequence (P20813 1-491): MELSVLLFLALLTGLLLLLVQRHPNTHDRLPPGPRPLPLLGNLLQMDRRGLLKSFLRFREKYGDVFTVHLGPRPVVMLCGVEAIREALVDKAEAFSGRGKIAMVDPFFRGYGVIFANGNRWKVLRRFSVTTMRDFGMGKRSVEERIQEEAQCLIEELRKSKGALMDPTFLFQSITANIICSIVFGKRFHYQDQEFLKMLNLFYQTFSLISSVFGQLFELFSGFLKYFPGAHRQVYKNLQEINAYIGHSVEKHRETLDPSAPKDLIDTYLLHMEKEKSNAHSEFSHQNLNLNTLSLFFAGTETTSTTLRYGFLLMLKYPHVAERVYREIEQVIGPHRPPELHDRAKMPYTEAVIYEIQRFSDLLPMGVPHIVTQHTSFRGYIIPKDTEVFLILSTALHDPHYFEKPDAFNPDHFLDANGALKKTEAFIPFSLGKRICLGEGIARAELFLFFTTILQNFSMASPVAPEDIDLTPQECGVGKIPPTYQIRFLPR
Protocol: The experiments for determining metabolism-dependent inhibition were conducted utilizing a non-dilution method. […] The pre-incubation was initiated by the addition of 1 mM NADPH and incubation for 30 min. Subsequently, final incubation was performed with the addition of a substrate (5 μM coumarin or 50 μM bupropion) in the presence of NADPH for 10 min; the total volume of the mixture was 200 μL. […] Mixtures were subjected to centrifugation at 3000× g for 20 min at 4 °C, and the supernatants were analyzed using LC-MS/MS. The experiment was performed using three separate samples.
The CYP-mediated activities in the presence of test substances were expressed as percentages of the corresponding control values.

[4] = biological target: T3, rCYP3A4 (Homo sapiens, UniProt P08684); assay: Enzyme activity assay using rCYP3A4 with or without cytochrome b5 (MDZ 1′-hydroxylation); assay type: biochemical
T3 construct: host or cells: baculovirus-transfected insect cells
Protocol: Incubation mixtures (final volume, 200 μL) contained 0.1 M PPB (pH 7.4), 50 pmol/mL rCYP3A4 with or without cytochrome b5, 1 mM NADPH, 5 μM MDZ, and POH (0–100 μM). After preincubating for 5 min, the reactions were initiated by adding 1 mM NADPH and incubated for 10 min. […] The experiment was performed using three separate samples.

[5] = biological target: T4, CYP3A4 (Homo sapiens, UniProt P08684); assay: Effect of POH on fimasartan (FMS) metabolism in pooled HLMs: CYP3A4-mediated BR-A-557 formation; assay type: in vitro ADME; settings: FMS 30 μM, 100 μM (−)-POH
Protocol: (§1) The substrates were applied at a concentration that approximated their Km values. The reactions were preincubated for 5 min before being initiated with the addition of 1 mM NADPH. After 10 min incubation, reactions containing atorvastatin, buspirone, FMS, or nifedipine were terminated by the addition of 200 μL of ice-cold acetonitrile with 100 nM carbamazepine as an internal standard. For terminating reactions with donepezil or tadalafil, 200 μL of ice-cold methanol containing 0.5% (v/v) formic acid and 1 μM carbamazepine as internal standard was added to samples. […] The experiment was performed using three separate samples.

[6] = test system: CYP3A4 and CYP2C9; assay: Effect of POH on fimasartan (FMS) metabolism in pooled HLMs: FMS S-oxide formation; assay type: in vitro ADME, human; settings: FMS 30 μM, (−)-POH 3.2–100 μM
Protocol: as §1

[7] = biological target: T4, CYP3A4; assay: Effect of POH on the metabolism of other CYP3A4 substrates in pooled HLMs; assay type: in vitro ADME; settings: (−)-POH 3.2–100 μM, substrates near Km
Protocol: as §1

[8] = biological target: T2, CYP2B6; assay: Direct CYP inhibition assay in pooled HLMs, CYP2B6 (bupropion)
[9] = biological target: T5, CYP1A2 (Homo sapiens, UniProt P05177); assay: Direct CYP inhibition assay in pooled HLMs, CYP1A2 (phenacetin); settings: up to 50 μM
T5 sequence (P05177 1-516): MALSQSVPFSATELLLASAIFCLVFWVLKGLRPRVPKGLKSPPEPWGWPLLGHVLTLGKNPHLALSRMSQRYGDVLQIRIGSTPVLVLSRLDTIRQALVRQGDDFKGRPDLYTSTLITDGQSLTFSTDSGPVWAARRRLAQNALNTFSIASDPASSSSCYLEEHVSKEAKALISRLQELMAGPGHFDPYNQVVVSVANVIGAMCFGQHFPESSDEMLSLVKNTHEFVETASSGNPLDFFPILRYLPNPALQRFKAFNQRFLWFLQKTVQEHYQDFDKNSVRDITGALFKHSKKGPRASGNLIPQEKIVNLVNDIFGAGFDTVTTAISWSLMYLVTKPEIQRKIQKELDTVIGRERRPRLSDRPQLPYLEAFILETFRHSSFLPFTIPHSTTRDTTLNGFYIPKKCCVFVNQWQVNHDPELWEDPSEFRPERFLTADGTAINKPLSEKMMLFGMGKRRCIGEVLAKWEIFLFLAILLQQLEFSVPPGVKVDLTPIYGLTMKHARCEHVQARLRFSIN

T4 sequence (P08684 whole entry): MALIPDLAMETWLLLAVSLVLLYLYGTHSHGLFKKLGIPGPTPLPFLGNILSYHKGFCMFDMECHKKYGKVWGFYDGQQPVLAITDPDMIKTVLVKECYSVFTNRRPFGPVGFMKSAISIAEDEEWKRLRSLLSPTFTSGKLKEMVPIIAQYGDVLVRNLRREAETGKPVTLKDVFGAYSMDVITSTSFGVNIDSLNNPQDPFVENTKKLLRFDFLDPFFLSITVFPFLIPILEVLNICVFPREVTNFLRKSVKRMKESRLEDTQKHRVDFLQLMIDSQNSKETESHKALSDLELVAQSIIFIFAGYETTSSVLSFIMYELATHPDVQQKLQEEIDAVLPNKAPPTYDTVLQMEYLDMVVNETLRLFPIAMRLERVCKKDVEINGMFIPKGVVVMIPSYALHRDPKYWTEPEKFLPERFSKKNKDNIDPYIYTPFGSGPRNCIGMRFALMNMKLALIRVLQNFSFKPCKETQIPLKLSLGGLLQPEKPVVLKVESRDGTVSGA
T3 sequence (P08684 whole entry): as above
CYP2E1, sequence (P05181 whole entry): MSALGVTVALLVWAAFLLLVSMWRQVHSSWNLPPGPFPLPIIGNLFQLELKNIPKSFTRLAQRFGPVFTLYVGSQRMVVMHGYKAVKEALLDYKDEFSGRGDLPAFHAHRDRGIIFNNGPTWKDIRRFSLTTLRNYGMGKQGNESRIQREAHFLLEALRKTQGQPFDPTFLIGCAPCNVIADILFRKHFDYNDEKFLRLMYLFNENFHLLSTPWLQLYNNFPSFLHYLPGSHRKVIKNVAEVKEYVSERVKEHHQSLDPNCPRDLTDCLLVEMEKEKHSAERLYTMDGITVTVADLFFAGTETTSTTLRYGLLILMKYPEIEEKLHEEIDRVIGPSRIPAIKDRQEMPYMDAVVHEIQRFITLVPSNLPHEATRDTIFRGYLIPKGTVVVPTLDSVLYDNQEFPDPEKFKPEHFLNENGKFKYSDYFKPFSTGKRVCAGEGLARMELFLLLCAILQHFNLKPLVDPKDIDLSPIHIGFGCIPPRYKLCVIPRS

Compound C=C(C)[C@@H]1CC=C(CO)CC1 [(−)-POH, (−)-perillyl alcohol] has an IC50 [1] of 15.7 µM, an IC50 [2] greater than 50 µM and an IC50 ([3]; IC50, pre-incubation with NADPH, 30 min pre-incubation with NADPH) of 13.4 µM. The IC50 ([3]; IC50, pre-incubation without NADPH, 30 min pre-incubation without NADPH) was 13.7 µM, the “IC50 fold-shift, CYP2B6” value ([3]; IC50 without NADPH/IC50 with NADPH) was 1.02 and the “Enhancement of MDZ 1′-hydroxylation” value ([4]; rCYP3A4 in the absence of cytochrome b5, POH 0–100 μM) was “No significant enhancement”. The “CYP3A4 activity for 1′-OH-MDZ formation compared with control without (−)-POH” value ([4]; rCYP3A4 in the presence of cytochrome b5, 100 μM (−)-POH, 5 μM MDZ) was 1.57 fold, the “BR-A-557 formation from FMS relative to the control” value [5] was 1.29 fold and the “Formation of FMS S-oxide” value [6] was “reduced”. The “Effect on CYP3A4-mediated metabolism of atorvastatin, buspirone, donepezil, nifedipine, and tadalafil” value [7] was “did not significantly affect”, the IC50 [8] was 6.99 µM and the “Inhibition of CYP1A2 activity” value [9] was “not significantly inhibited”.
